Test results taken from article PMC12126525, “Mechanism of ATP hydrolysis in the Hsp70 BiP nucleotide-binding domain” (Nature Communications, 2025).
One block for each compound: values may come before it.

Assays:
BiP NBD [1] = molecular target: T1, BiP NBD (Homo sapiens, UniProt P11021); assay: NMR experiment with MABA-ATP (no E1, no E2) and kinetic fit of the MABA-ATP/MABA-ADP functional cycle; assay type: biochemical; design: His6 (N, cleaved yes); made in house; host or cells: E. coli BL21-(DE3)-Lemo, pET28a vector; settings: Supplementary Fig 13b
Protocol: […] After the equilibration time 2D [^13C,^1H]-HMQC spectra were recorded in interleaved mode with 1D ^1H NMR spectra. […] The same setup was used for the alternative experiments by including or excluding E1 and/or E2. When E1 was not included, the ratio of the ATP/ADP NMR signals was used to monitor their relative concentrations.
(1 picture or pasted object on this page, not shown here)

BiP NBD [2] = molecular target: T1, BiP NBD; assay: Global kinetic fit (MCMC) of four NMR data sets (E1+E2, E1 only, E2 only, no recycling): functional cycle kinetic parameters; assay type: biochemical; design: His6 (N, cleaved yes); made in house; host or cells: E. coli BL21-(DE3)-Lemo, pET28a vector
Description: It comprises 5 different states that are connected by […] reaction equations of first and second order. We consider ATP hydrolysis an irreversible reaction without backreaction. The other pathways are reversible dissociation/association reactions, arbitrarily labeled 1–5. The microscopic equations (elementary reactions) for these 11 reactions are given by:1 NBD^ATPkcat→NBD^ADP⋅Pi 2 NBD^ATPkoff1⇌kon1NBD^apo+ATP 3 NBD^ADPkoff2⇌kon2NBD^apo+ADP 4 NBD^Pikoff3⇌kon3NBD^apo+Pi 5 NBD^ADP⋅Pikoff4⇌kon4NBD^ADP+Pi 6 NBD^ADP⋅Pikoff5⇌kon5NBD^Pi+ADP With the forward and backward kinetic rate constants connected by thermodynamic equilibrium dissociation constants given by7 koffi/koni=KDifori=1,…,5 For each of the 5 states, a differential equation describing the conservation of mass can be derived:8 d/dtNBD^apo=+koff1NBD^ATP+koff2NBD^ADP+koff3NBD^Pi−kon1NBD^apoATP−kon2NBD^apoADP−kon3NBD^apoPi 9 d/dt[NBD^ATP]=+kon1NBD^apoATP−koff1NBD^ATP−kcatNBD^ATP 10 d/dtNBD^ADP⋅Pi=+kcatNBD^ATP+kon4NBD^ADPPi+kon5NBD^PiADP−koff4NBD^ADP⋅Pi−koff5NBD^ADP⋅Pi 11 d/dtNBD^ADP=+koff4NBD^ADP⋅Pi+kon2NBD^apoADP−koff2NBD^ADP−kon4NBD^ADPPi 12 d/dtNBD^Pi=+koff5NBD^ADP⋅Pi+kon3NBD^apoPi−koff3NBD^Pi−kon5NBD^PiADP Furthermore, we have the total amount13 NBD^apo+NBD^ATP+NBD^ADP+NBD^ADP⋅Pi+NBD^Pi=NBD0 These equations can be used for numerical fitting of steady-state and non-steady-state experimental data.
The experimental data of the BiP NBD in-cyclo experiments were fitted using standard reaction kinetics. Free variables were the kon and koff rates for the five reversible reaction and the catalytic rate constant (kcat) for the irreversible ATP hydrolysis step (See theory section). The initial values for kcat , koff2 , koff4 and koff5 were set to the value determined experimentally with in-cyclo experiment. The initial value for koff3 was taken from the EXSY experiment and the initial range for koff1 and KD1 were taken from the literature. […] The prior distributions were defined based on the average state occupancy resolved from the in-cyclo experiment: tNBD·ADP, tNBD, tNBD·ADP·Pi and tNBD·Pi. Numerical integration of the corresponding differential equations for the reaction scheme (described in Fig. 2a) was performed using a custom Python module (Kinetic).
To fully determine all kinetic parameters, the data fitting procedure was conducted as a global fit of four independent experimental datasets: (i) the in-cyclo experiment with ATP regeneration and phosphate removal, (ii) ATP regeneration only, (iii) single batch experiments starting from pure ATP with the phosphate removal system, and (iv) single batch experiments starting from pure ATP.
Fitting of the functional cycle kinetic parameters. a-d, Global fit of the experimental data presented in the manuscript E1 +E2 (a), E1 (b), E2 (c), no recycling system (d). Data points are shown as circles NBD·ADP (blue), NBD·ADP·PI (dark blue) and NBD·ATP (red) (left) and pyruvate (grey), glucose-1-P (lavender), ATP (red) and ADP (blue) (right). The fit of the data is shown as lines in the same color as the data points. Data points and standard deviation for three independent experiments. e, Numerical stability of the global fitting of the experimental data.

T1 sequence (P11021 19-406): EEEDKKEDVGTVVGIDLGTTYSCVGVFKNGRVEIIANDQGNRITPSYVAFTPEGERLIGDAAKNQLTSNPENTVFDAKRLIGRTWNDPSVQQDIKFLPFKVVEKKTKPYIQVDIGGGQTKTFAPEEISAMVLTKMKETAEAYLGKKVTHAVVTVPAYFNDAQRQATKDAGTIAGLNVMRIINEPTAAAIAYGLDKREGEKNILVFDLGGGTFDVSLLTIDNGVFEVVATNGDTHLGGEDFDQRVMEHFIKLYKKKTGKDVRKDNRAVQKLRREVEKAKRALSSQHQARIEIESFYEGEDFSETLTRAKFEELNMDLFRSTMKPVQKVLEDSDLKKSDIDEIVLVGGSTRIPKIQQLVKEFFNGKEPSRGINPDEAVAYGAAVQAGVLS

species (BiP NBD [1]; time 4 min): 649 µM
species (BiP NBD [1]; time 10 min): 492.3 µM
species (BiP NBD [1]; time 16 min): 374.2 µM
species (BiP NBD [1]; time 22 min): 287.7 µM
species (BiP NBD [1]; time 28 min): 199.6 µM
species (BiP NBD [1]; time 34 min): 160.1 µM
species (BiP NBD [1]; time 40 min): 111.4 µM
species (BiP NBD [1]; time 46 min): 92.6 µM
species (BiP NBD [1]; time 52 min): 70.6 µM
species (BiP NBD [1]; time 58 min): 65.7 µM
species (BiP NBD [1]; time 64 min): 67.7 µM
Structure (SMILES): CNc1ccccc1C(=O)NCCCCNc1nc2c(N)ncnc2n1[C@@H]1O[C@H](COP(=O)(O)OP(=O)(O)OP(=O)(O)O)[C@@H](O)[C@H]1O [MABAATP]

species (BiP NBD [2]; Supplementary Fig 10a, time 5 min): 23927 µM
species (BiP NBD [2]; Supplementary Fig 10a, time 11 min): 22915 µM
species (BiP NBD [2]; Supplementary Fig 10a, time 17 min): 22075 µM
species (BiP NBD [2]; Supplementary Fig 10a, time 23 min): 20991 µM
species (BiP NBD [2]; Supplementary Fig 10a, time 29 min): 20195 µM
species (BiP NBD [2]; Supplementary Fig 10a, time 35 min): 19469 µM
species (BiP NBD [2]; Supplementary Fig 10a, time 41 min): 18568 µM
species (BiP NBD [2]; Supplementary Fig 10a, time 47 min): 17755 µM
species (BiP NBD [2]; Supplementary Fig 10a, time 53 min): 16928 µM
species (BiP NBD [2]; Supplementary Fig 10a, time 59 min): 16013 µM
species (BiP NBD [2]; Supplementary Fig 10a, time 65 min): 15275 µM
species (BiP NBD [2]; Supplementary Fig 10a, time 71 min): 14277 µM
species (BiP NBD [2]; Supplementary Fig 10b, time 10 min): 9179 µM
species (BiP NBD [2]; Supplementary Fig 10b, time 16 min): 8398 µM
species (BiP NBD [2]; Supplementary Fig 10b, time 22 min): 7745 µM
species (BiP NBD [2]; Supplementary Fig 10b, time 28 min): 7180 µM
species (BiP NBD [2]; Supplementary Fig 10b, time 34 min): 6616 µM
species (BiP NBD [2]; Supplementary Fig 10b, time 40 min): 6265 µM
species (BiP NBD [2]; Supplementary Fig 10b, time 46 min): 5793 µM
species (BiP NBD [2]; Supplementary Fig 10b, time 52 min): 5256 µM
species (BiP NBD [2]; Supplementary Fig 10b, time 58 min): 4838 µM
species (BiP NBD [2]; Supplementary Fig 10b, time 64 min): 4465 µM
species (BiP NBD [2]; Supplementary Fig 10b, time 70 min): 3973 µM
Structure (SMILES): C=C(OP(=O)(O)O)C(=O)O [PEP]
